In patent publication US6046340A, “Imidazole containing pseudodipeptide product and compositions containing the same” (Exsymol Societe Anonyme Monegasque, priority 1993, dated 2000):

Legend:
[1] = Inhibitory power on the hydroxyl radical (deoxyribose oxidation, EDTA/iron, H2O2, thiobarbituric acid/MDA detection); type: biochemical; conditions: antioxidant 10 mM; deoxyribose substrate
From the text: Experimental procedure described by J. M. C. Gutteridge in Biochemistry Journal, vol 224 (1984), p. 761-767: oxidation substrate: deoxyribose, system of production of the hydroxyl radical OH.:
Detection: thiobarbituric acid/mondialdehyde (MDA)
Antioxidant of reference: dipeptide β-alanyl-L-histidine (sensitive to enzymatic deactivation)

[2] = Inhibitory power on the superoxide anion (xanthine oxydase/hypoxanthine, cytochrome C reduction at 550 nm); type: biochemical; conditions: for ability to inhibit the superoxide anion / reduction of cytochrom c (in words): enzymatic system generating superoxide anion
From the text: System of production of superoxide anion:xanthine oxydase/hypoxanthine (absence of iron).
The superoxide anion is a reducing substance. It is more especially able to reduce a substrate, the cytochrome C. Its reduction is followed with ultraviolet spectrophotometry to 550 nm.
The percentage of inhibition is described as follows: […]

murine splenocytes = test: Immunostimulating power: proliferation of murine splenocytes (tritiated thymidine incorporation); type: cell-based; conditions: for stimulation index (IS): mean of three measurements
From the text: Then experimental procedure is extracted from: J. Kunert-Radek, H. Stepien, K. Lyson and M. Pawlikowki--"Effects of calcium channel modulators on the proliferation of mouse spleen lymphocytes in vitro"--Agents and Actions, vol. 29 Nos 3-4 (1990), p. 254-258.
The cell proliferation is followed by the measurement of the incorporation rate of the tritiated thymidine in the cells, expressed in number of desintegrations per mn, deduced from the background noise.
The results obtained with an immunostimulator of reference, the concanavaline A, are given for comparison.
The immunostimulating effect is expressed with a stimulation index (SI). [formula] The values correspond to the mean value of three measurements.

human monocytes = test: Cell proliferation of a homogenous population of human monocytes (tritiated thymidine incorporation); type: cell-based
From the text: In order to specify the pseudodipeptides mode of action, a second experiment has been carried out on an homogenous population of human monocytes.
Cell proliferation has been evaluated the same way as previously: […]

Compound	% inhibiton (hydroxyl radical OH.) [1]	% of inhibition (superoxide anion, cytochrome C reduction) ([2]; 1 mM)	% of inhibition (superoxide anion, cytochrome C reduction) ([2]; 5 mM)	% of inhibition (superoxide anion, cytochrome C reduction) ([2]; 10 mM)	% of inhibition (superoxide anion, cytochrome C reduction) ([2]; 20 mM)	ability to inhibit the superoxide anion / reduction of cytochrom c (in words) [2]	stimulation index (IS) (murine splenocytes; 2.5 μg/ml)	stimulation index (IS) (murine splenocytes; 5.0 μg/ml)	stimulation index (IS) (murine splenocytes; 10.0 μg/ml)	stimulation index (IS) (murine splenocytes; 25.0 μg/ml)	concentration of maximal immunostimulating effect (murine splenocytes; murine splenocytes)	stimulation index (IS) (human monocytes; 2.50 μg/ml)	stimulation index (IS) (human monocytes; 5.00 μg/ml)	stimulation index (IS) (human monocytes; 10.00 μg/ml)	stimulation index (IS) (human monocytes; 25.00 μg/ml)	average factor of activity versus concanavaline A (human monocytes; human monocytes)
N[C@@H](CCC(=O)O)C(=O)NCCc1c[nH]cn1 [L-glutamyl-histamine, L-Glutamyl-histamine]	0%	3,5%	14%	24%	35%	strongly inhibit	7.8	42.7	42.1	5.6	5 µg/mL	8.23	39.80	23.50	2.50	1.34
O=C(NCCc1c[nH]cn1)[C@@H]1CCCN1 [L-prolyl-histamine]	62%					do not have the ability to inhibit										
NCCC(=O)N[C@@H](Cc1c[nH]cn1)C(=O)O [β-alanyl-L-histidine, reference compound]	38%					do not have the ability to inhibit										
concanavaline A [reference compound]							8.3	33.4	61.5	4.3		4.82	29.60	21.10		
